Test results as given in US20240308992A1 (Biopolar Youtang(Guangdong) Pharmaceutical Co., Ltd., priority 2021, published 2024).

Biological target: T1, Drak2 (Homo sapiens, UniProt O94768)
T1 sequence (O94768 1-372): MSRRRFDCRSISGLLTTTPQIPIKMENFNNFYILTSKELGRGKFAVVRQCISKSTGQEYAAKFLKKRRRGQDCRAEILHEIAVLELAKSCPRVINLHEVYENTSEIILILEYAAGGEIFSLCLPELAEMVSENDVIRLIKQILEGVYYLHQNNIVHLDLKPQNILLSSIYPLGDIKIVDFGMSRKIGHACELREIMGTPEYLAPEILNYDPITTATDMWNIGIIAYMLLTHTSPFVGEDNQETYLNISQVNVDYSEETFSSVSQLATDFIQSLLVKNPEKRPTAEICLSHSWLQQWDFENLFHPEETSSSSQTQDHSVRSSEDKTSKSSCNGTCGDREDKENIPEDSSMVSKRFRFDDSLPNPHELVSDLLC
Assay: Drak2 activity test, ADP-Glo kinase assay (Promega)
Format: biochemical
Details: inhibition of Drak2 kinase activity, 2 h room temperature, activity range classes, read-out: IC50_Drak2

Row | IC50 [nM] | SMILES
1 | 101 to 1000 | COc1cc(-c2cncc(-c3cc(NC(=O)CC4CC(C(C)=O)C4(C)C)cs3)n2)ccc1C(=O)N(C)C1CCN(C)CC1 (stereo not drawn) [Example B87, 4-(6-(4-(2-(3-acetyl-2,2-dimethylcyclobutyl)acetamido)thiophen-2-yl)pyrazin-2-yl)-2-methoxy-N-methyl-N-(1-methylpiperidin-4-yl)benzamide]
2 | 101 to 1000 | COc1cc(-c2cncc(-c3cc(NC(=O)C(N)C4CCC4)cs3)n2)ccc1C(=O)N(C)C1CCN(C)CC1 (stereo not drawn) [Example B88, 4-(6-(4-(2-amino-2-cyclobutylacetamido)thiophen-2-yl)pyrazin-2-yl)-2-methoxy-N-methyl-N-(1-methylpiperidin-4-yl)benzamide]
3 | 101 to 1000 | COc1cc(-c2cncc(-c3cc(NC(=O)CC4COC4)cs3)n2)ccc1C(=O)N(C)C1CCN(C)CC1 [Example B89, 2-methoxy-N-methyl-N-(1-methylpiperidin-4-yl)-4-(6-(4-(2-(oxetan-3-yl)acetamido)thiophen-2-yl)pyrazin-2-yl)benzamide]
4 | < 10 | COc1cc(-c2cncc(-c3cc(NC(=O)CC4CC(F)C4)cs3)n2)ccc1C(=O)N(C)C1CCN(C)CC1 (stereo not drawn) [Example B90, 4-(6-(4-(2-(3-fluorocyclobutyl)acetamido)thiophen-2-yl)pyrazin-2-yl)-2-methoxy-N-methyl-N-(1-methylpiperidin-4-yl)benzamide]
5 | 101 to 1000 | COc1cc(-c2cncc(-c3cc(NC(=O)CC4CC(C(C)=O)C4)cs3)n2)ccc1C(=O)N(C)C1CCN(C)CC1 (stereo not drawn) [Example B91, 4-(6-(4-(2-(3-acetylcyclobutyl)acetamido)thiophen-2-yl)pyrazin-2-yl)-2-methoxy-N-methyl-N-(1-methylpiperidin-4-yl)benzamide]
6 | 11 to 100 | COc1cc(-c2cncc(-c3cc(NC(=O)CC4CC(C(C)(F)F)C4)cs3)n2)ccc1C(=O)N(C)C1CCN(C)CC1 (stereo not drawn) [Example B92, 4-(6-(4-(2-(3-(1,1-difluoroethyl)cyclobutyl)acetamido)thiophen-2-yl)pyrazin-2-yl)-2-methoxy-N-methyl-N-(1-methylpiperidin-4-yl)benzamide]
7 | 11 to 100 | COc1cc(-c2cncc(-c3cc(NC(=O)CC4CCC4)cs3)n2)ccc1C(=O)N(C)C1CC2(C1)CN(C)C2 [Example B93, 4-(6-(4-(2-cyclobutylacetamido)thiophen-2-yl)pyrazin-2-yl)-2-methoxy-N-methyl-N-(2-methyl-2-azaspiro[3.3]heptan-6-yl)benzamide]
8 | 101 to 1000 | COc1cc(-c2cncc(-c3cc(NC(=O)CC4(N)CCC4)cs3)n2)ccc1C(=O)N(C)C1CCN(C)CC1 [Example B94, 4-(6-(4-(2-(1-aminocyclobutyl)acetamido)thiophen-2-yl)pyrazin-2-yl)-2-methoxy-N-methyl-N-(1-methylpiperidin-4-yl)benzamide]
9 | 11 to 100 | COc1cc(-c2cncc(-c3cc(NC(=O)C(C)C4CCC4)cs3)n2)ccc1C(=O)N(C)C1CCN(C)CC1 (stereo not drawn) [Example B95, 4-(6-(4-(2-cyclobutylpropanamido)thiophen-2-yl)pyrazin-2-yl)-2-methoxy-N-methyl-N-(1-methylpiperidin-4-yl)benzamide]
10 | 11 to 100 | COc1cc(-c2cncc(-c3cc(NC(=O)CC4CCC4)cs3)n2)ccc1C(=O)N(C)C1CCN(C2CC2)CC1 [Example B96, 4-(6-(4-(2-cyclobutylacetamido)thiophen-2-yl)pyrazin-2-yl)-N-(1-cyclopropylpiperidin-4-yl)-2-methoxy-N-methylbenzamide]
11 | 11 to 100 | COc1cc(-c2cncc(-c3cc(NC(=O)CC4CCC4)cs3)n2)ccc1C(=O)N(C)C1CC2(C1)CN(C1CC1)C2 [Example B97, 4-(6-(4-(2-cyclobutylacetamido)thiophen-2-yl)pyrazin-2-yl)-N-(2-cyclopropyl-2-azaspiro[3.3]heptan-6-yl)-2-methoxy-N-methylbenzamide]
12 | < 10 | COc1cc(-c2cncc(-c3cc(NC(=O)CC4CCC4)cs3)n2)ccc1C(=O)NO [Example B98, 4-(6-(4-(2-cyclobutylacetamido)thiophen-2-yl)pyrazin-2-yl)-N-hydroxy-2-methoxybenzamide]
